# Measurements taken from US10266544B2, “Aryl substituted aminomethyl spectinomycin analogs as antibacterial agents” (ST. JUDE CHILDREN'S RESEARCH HOSPITAL, INC., priority 2013, dated 2019).
# Structures can show the parent of a compound that is named as a salt. Where two headings read alike, the source gives them in different places.
# Assays:
# Format in all cases: cell-based
# [1] = test system: Neisseria meningitides (ATCC 13077); assay: Disc diffusion assay; conditions: ATCC13077, 4 μg per disc, read-out: Zone of inhibition N.m.
# [2] = test system: Streptococcus pneumoniae (R6); assay: MIC determination, microbroth dilution
# [3] = test system: acinetobacter baumannii (ATCC 19606); assay: MIC determination, microbroth dilution; conditions: ATCC19606
# [4] = test system: live vaccine strain (LVS) of Francisella tularensis; assay: microbe, parasite or virus in culture; conditions: Francisella tularensis, read-out: MIC F.t.
# [5] = test system: Escherichia coli (ATCC 700926); assay: MIC determination, microbroth dilution; conditions: ATCC700926; Escherichia coli (ATCC 700926); read-out: MIC E.c.
# [6] = test system: Legionella pneumophila (ATCC 33153); assay: microbe, parasite or virus in culture; conditions: ATCC33153, 72 h, read-out: Zone of inhibition L.p.
# [7] = test system: Proteus vulgaris (ATCC 33420); assay: MIC determination, microbroth dilution; conditions: ATCC33420
# [8] = test system: Pseudomonas aeruginosa (PA01); assay: MIC determination, microbroth dilution
# [9] = test system: Burkholderia cepacia (ATCC 25416); assay: MIC determination, microbroth dilution
# [10] = test system: Neisseria gonorrhoeae (ATCC 49226); assay: Disc diffusion assay; conditions: ATCC49226, 4 μg per disc, read-out: Zone of inhibition N.g.
# [11] = test system: Streptococcus pyogenes (ATCC 700294); assay: MIC determination, microbroth dilution; conditions: ATCC700294; Streptococcus pyogenes (ATCC 700294); read-out: MIC S. py.
# [12] = test system: Proteus mirabilis (ATCC 25933); assay: MIC determination, microbroth dilution; conditions: ATCC25933
# Bacillus anthracis = assay: microbe, parasite or virus in culture; conditions: read-out: MIC B.a.
# E. coli K12 ΔtolC = assay: microbe, parasite or virus in culture; conditions: Escherichia coli, read-out: MIC E.c. Δtolc
# [13] = test system: Bacillus subtilis (ATCC 23857); assay: MIC determination, microbroth dilution; conditions: ATCC23857; Bacillus subtilis (ATCC 23857); read-out: MIC B.s.
# Listeria monocytogenes = assay: MIC determination (Table 6)
# [14] = test system: Stenotrophomonas maltophilia (ATCC 13637); assay: MIC determination, microbroth dilution; conditions: ATCC13637; Stenotrophomonas maltophilia (ATCC 13637); read-out: MIC S.m.
# [15] = test system: MRSA, Staphylococcus aureus (NRS70); assay: MIC determination, microbroth dilution; conditions: Staphylococcus aureus (NRS70); read-out: MIC MRSA
# [16] = test system: Enterococcus faecalis (ATCC 33186); assay: MIC determination, microbroth dilution; conditions: ATCC33186; Enterococcus faecalis (ATCC 33186); read-out: MIC E.f.
# Moraxella catarrhalis = assay: MIC determination (Table 6)
# [17] = test system: Bacillus anthracis, Sterne 34F2; assay: microbe, parasite or virus in culture; conditions: STERNE34F2, read-out: MIC B.a.
# Yersinia pestis = assay: microbe, parasite or virus in culture; conditions: read-out: MIC Y.p.
# [18] = test system: Neisseria gonorrhoeae (ATCC 49226); assay: Agar MIC determination (Alamar Blue); conditions: ATCC49226, agar MIC, read-out: MIC N.g.
# [19] = test system: Streptococcus pneumoniae clinical isolates representing several serotypes; assay: MIC determination, Streptococcus pneumoniae panel of clinical isolates (Table 7); conditions: Streptococcus pneumoniae
# [20] = test system: M. tuberculosis clinical isolates; assay: microbe, parasite or virus in culture; conditions: Mycobacterium tuberculosis
# [21] = test system: Haemophilus influenza (ATCC 49247); assay: microbe, parasite or virus in culture
# [22] = test system: Klebsiella pneumoniae (ATCC 33495); assay: MIC determination, microbroth dilution; conditions: ATCC33495
# [23] = test system: Staphylococcus aureus (ATCC 29213); assay: MIC determination, microbroth dilution; conditions: ATCC29213; Staphylococcus aureus (ATCC 29213); read-out: MIC S.a.
# [24] = S. pneumoniae A66.1x, Drug Susceptible, read-out: MIC A66.1x
# [25] = S. pneumoniae BHN97x, Drug Susceptible, read-out: MIC BHN97x
# [26] = S. pneumoniae Daw7, PenG Resistant, read-out: MIC Daw7
# [27] = S. pneumoniae Daw8, PenG Resistant, read-out: MIC Daw8
# [28] = S. pneumoniae Daw62, PenG Resistant, read-out: MIC Daw62
# [29] = S. pneumoniae Daw64, PenG Resistant, read-out: MIC Daw64
compound,measurement,setting,value
"CN[C@@H]1[C@H](O)[C@H](NC)[C@H]2O[C@@]3(O)C(=O)C[C@@H](C)O[C@H]3O[C@@H]2[C@H]1O [SPC, (2R,4aR,5aR,6S,7S,8R,9S,9aR,10aS)-4a,7,9-trihydroxy-2-methyl-6,8-bis(methylamino)decahydro-4H-benzo[b]pyrano[2,3-e][1,4]dioxin-4-one, reference compound]",zone of inhibition at 4 µg/disc,[1],13 to 14 mm
same,MIC,"[2]; Streptococcus pneumoniae, read-out: MIC R6",12.5 µg/mL
same,MIC,"[2]; Streptococcus pneumoniae, read-out: MIC S. pn.",12.5 µg/mL
same,MIC,[3],> 200 µg/mL
same,MIC,[4],12.5 to 25 µg/mL
same,MIC,[5],25 to 50 µg/mL
same,zone of inhibition at 4 µg/disc,[6],0 mm
same,MIC,[7],50 µg/mL
same,MIC,[8],50 to 100 µg/mL
same,MIC,"[9]; ATCC25416, Burkholderia cepacia (ATCC 25416), read-out: MIC B.c.",50 to 100 µg/mL
same,MIC B.c.,"[9]; Burkholderia cepacia, Table 6",50 to 100 µg/mL
same,zone of inhibition at 4 µg/disc,[10],11 to 13 mm
same,MIC,[11],25 µg/mL
same,MIC,[12],> 200 µg/mL
same,MIC,Bacillus anthracis,25 µg/mL
same,MIC,E. coli K12 ΔtolC,3.1 to 12.5 µg/mL
same,MIC,[13],25 µg/mL
same,MIC,Listeria monocytogenes,25 to 50 µg/mL
same,MIC,[14],50 to 200 µg/mL
same,MIC,[15],> 200 µg/mL
same,MIC,[16],50 to 100 µg/mL
same,MIC,Moraxella catarrhalis,3.1 to 6.3 µg/mL
same,MIC,[17],25 µg/mL
same,MIC,Yersinia pestis,12.5 µg/mL
same,MIC,[18],50 µg/mL
same,MIC,"[19]; BAA1407, read-out: MIC BAA-1407",12.5 µg/mL
same,MIC,[19]; read-out: MIC D39X,12.5 µg/mL
same,MIC,[19]; read-out: MIC Daw9,12.5 µg/mL
same,MIC,[19]; read-out: MIC OVA6,12.5 µg/mL
same,MIC,[19]; read-out: MIC T4X,12.5 µg/mL
same,MIC,[19]; [24],6.3 µg/mL
same,MIC,[19]; [25],6.3 µg/mL
same,MIC,[19]; [26],25 µg/mL
same,MIC,[19]; [27],25 µg/mL
same,MIC,[19]; [28],25 µg/mL
same,MIC,[19]; [29],25 µg/mL
same,MIC,"[20]; H37RV, read-out: MIC H37Rv",100 µg/mL
same,MIC,[20]; read-out: MIC TN022,200 µg/mL
same,MIC,[20]; read-out: MIC TN026,200 µg/mL
same,zone of inhibition at 4 µg/disc,"[21]; Haemophilus, ATCC49247, read-out: Zone of inhibition H.i.",11 to 13 mm
same,MIC,[22],> 200 µg/mL
"CN[C@@H]1[C@H](O)[C@H](NC)[C@H]2O[C@]3(O)[C@H](O[C@@H]2[C@H]1O)O[C@H](C)C[C@@]3(O)CNCc1ccccc1 [compound 1, 3′-(R)-3′-(benzylaminomethyl)dihydrospectinomycin Trihydrochloride]",zone of inhibition at 4 µg/disc,[1],16 to 22 mm
same,MIC,"[2]; Streptococcus pneumoniae (R6), read-out: MIC S. pn.",6.3 to 12.5 µg/mL
same,MIC,"[2]; Streptococcus pneumoniae, S. pneumoniae R6, Drug Susceptible, read-out: MIC R6",6.3 µg/mL
same,MIC,[3],> 200 µg/mL
same,MIC,[4],3.1 µg/mL
same,MIC,[5],100 µg/mL
same,zone of inhibition at 4 µg/disc,[6],36 to 40 mm
same,MIC,[7],200 µg/mL
same,MIC,[8],> 200 µg/mL
same,MIC,"[9]; Burkholderia cepacia, ATCC25416, read-out: MIC B.c., Burkholderia cepacia (ATCC 25416)",≥ 200 µg/mL
same,MIC,"[9]; Burkholderia cepacia, ATCC25416, read-out: MIC B.c., Burkholderia cepacia, Table 6",≥ 200 µg/mL
same,zone of inhibition at 4 µg/disc,[10],16 mm
same,MIC,[11],3.1 to 6.3 µg/mL
same,MIC,[12],> 200 µg/mL
same,MIC,Bacillus anthracis,50 µg/mL
same,MIC,E. coli K12 ΔtolC,25 µg/mL
same,MIC,[13],3.1 µg/mL
same,MIC,Listeria monocytogenes,25 µg/mL
same,MIC,[14],25 µg/mL
same,MIC,[15],50 to 100 µg/mL
same,MIC,[16],25 µg/mL
same,MIC,Moraxella catarrhalis,6.3 µg/mL
same,MIC,[17],50 µg/mL
same,MIC,Yersinia pestis,100 to 200 µg/mL
same,MIC,[18],100 µg/mL
same,MIC,"[19]; BAA1407, S. pneumoniae BAA-1407, Macrolide Resistant, read-out: MIC BAA-1407",12.5 µg/mL
same,MIC,[19]; [24],3.1 µg/mL
same,MIC,[19]; [25],3.1 µg/mL
same,MIC,"[19]; S. pneumoniae D39X, Drug Susceptible, read-out: MIC D39X",3.1 µg/mL
same,MIC,[19]; [26],6.3 µg/mL
same,MIC,[19]; [27],6.3 µg/mL
same,MIC,"[19]; S. pneumoniae Daw9, PenG Resistant, read-out: MIC Daw9",6.3 µg/mL
same,MIC,[19]; [28],6.3 µg/mL
same,MIC,[19]; [29],6.3 µg/mL
same,MIC,"[19]; S. pneumoniae OVA6, Macrolide Resistant, read-out: MIC OVA6",6.3 µg/mL
same,MIC,"[19]; S. pneumoniae T4X, Drug Susceptible, read-out: MIC T4X",6.3 µg/mL
same,MIC,"[20]; H37RV, read-out: MIC H37Rv",25 µg/mL
same,zone of inhibition at 4 µg/disc,"[21]; ATCC49247, Haemophilus influenza, 4 μg per disc, range of at least two experiments, read-out: Zone of inhibition H.i.",16 mm
same,MIC,[22],> 200 µg/mL
same,MIC,[23],50 µg/mL
